{
  "source": "patent US20240261295A1",
  "about": "“COMBINATIONS OF WEE1 INHIBITORS AND ANTI-CD47 ANTIBODIES” (Recurium IP Holdings, LLC, priority 2021, published 2024)",
  "test_system": "RPMI-8226 cells",
  "experiment": "RPMI-8226 xenograft model, tumor volume",
  "assay_type": "in vivo, Mice",
  "details": "ZN-c3 60 mg/kg p.o. qd×21, single agent, RPMI-8226 subcutaneous xenograft",
  "method": "Mice were inoculated with RPMI-8226 cells subcutaneously on the right flank with the single cell suspension of 95% viable tumor cells ([…]) in 100 μL RPMI 1640 Matrigel mixture (1:1 ratio) without serum for the tumor development. The treatment was started when the mean tumor size reached approximately 200 mm^3, with individual tumor size ranging from 185-235 mm^3. Animals were randomly distributed into treatment groups of 10 animals each and dosed with vehicle and indicated compounds at the indicated dosage and frequency shown in FIG. 2 and Table 1. In FIG. 2, the bottom line with circles is ZN-c3 60 mg/kg p.o. qd×21+Anti-CD47 20 mg/kg ip BIW×3. Anti-CD47 was obtained from Bio X Cell (clone B6.H12, catalog number BE0019-1). Tumor volumes were evaluated twice per week to calculate tumor volume over time, and the mice were weighed twice per week as a surrogate for signs of toxicity. Tumor growth inhibition (TGI) was calculated using the following equation TGI=(1−(Td−T0)/(Cd−C0))×100%. Td and Cd are the mean tumor volumes of the treated and control animals, and T0 and C0 are the mean tumor volumes of the treated and control animals at the start of the experiment. The tumor regression was defined as individual tumor volume (TV) decrease (terminal TV compared to initial TV). The percent tumor regression was calculated using the formula: (1−(Td/T0))×100%.",
  "data": [
    {"molecule": "C=CCn1c(=O)c2cnc(Nc3ccc(N4CCN(C)CC4)cc3)nc2n1-c1ccc2c(n1)[C@@](O)(CC)CC2", "note": "[ZN-c3]", "values": [
      {"measurement": "TGI % (Day 21)", "result": 61, "unit": "%"}
    ]}
  ]
}
